# Test results: US20140163095A1, “USE OF ERIBULIN IN THE TREATMENT OF BREAST CANCER” (priority 2012, published 2014)
# Marks after values point to notes of the source that are not given here.
# Tested on: locally recurrent or metastatic HER2 negative breast cancer
# Experiment: Phase II clinical trial of eribulin mesylate as first-line treatment (Part 2, additional data)
# Assay type: in vivo, human
# Excerpt: This example provides additional data obtained from the study described above in Example 2. The baseline demographics and characteristics of patients in the study are as set forth below in Table 6.
# [1] = ER−/PR−/HER2−, n 2, CI not available
structure (smiles),measurement,setting,value
"C=C1C[C@@H]2CC[C@@]34C[C@H]5O[C@H]6[C@@H](O3)[C@H]3O[C@H](CC[C@@H]3O[C@H]6[C@H]5O4)CC(=O)C[C@@H]3[C@@H](OC)[C@@H](C[C@H](O)CN)O[C@H]3C[C@H]3O[C@@H](CC[C@@H]1O2)C[C@@H](C)C3=C.CS(=O)(=O)O [Eribulin, 11,15:18,21:24,28-Triepoxy-7,9-ethano-12,15-methano-9H,15H-furo[3,2-i]furo[2′,3′:5,6]pyrano[4,3-b][1,4]dioxacyclopentacosin-5(4H)-one, 2-[(2S)-3-amino-2-hydroxypropyl]hexacosahydro-3-methoxy-26-methyl-20,27-bis(methylene)-, (2R,3R,3aS,7R,8aS,9S,10aR,11S,12R,13aR,13bS,15S,18S,21S,24S,26R,28R,29aS)-methanesulfonate (salt)]","DOR (duration of response), Median months (95% CI)","ALL, 16 responders",5.8 (4.7-10.6) months
same,"TTR (time to first response), Median months (95% CI)","ALL, 16 responders",1.4 (1.2-2.7) months
same,"TTR (time to first response), Median months (95% CI)","ALL, 16 responders, listed as eribulin",1.4 months
same,"PFS, Median months (95% CI)","ALL, N 56",6.8 (4.4-7.6) months
same,"PFS, Median months (95% CI)","ALL, N 56, listed as eribulin",6.8 months
same,Clinical benefit rate (CR + PR + ≧6 months SD),"ALL, N = 56",29 (51.8) n (%)
same,Complete response (CR),"ALL, N = 56",0 n (%)
same,Disease control rate (CR + PR + SD),"ALL, N = 56",42 (75.0) n (%)
same,Not evaluable/unknown (response category),"ALL, N = 56",3 (5.4) n (%)
same,Objective response rate (ORR),"ALL, N = 56",16 (28.6) n (%)
same,Partial response (PR),"ALL, N = 56",16 (28.6) n (%)
same,Progressive disease (PD),"ALL, N = 56",11 (19.6) n (%)
same,ORR,ER+ subgroup,34.1%
same,disease control rate,ER+ subgroup,85.4%
same,"DOR, Median months (95% CI)","ER+, n 14",7.4 (4.6-27.5) months
same,"TTR, Median months (95% CI)","ER+, n 14",2.0 (1.3-2.7) months
same,"PFS, Median months (95% CI)","ER+, n 41",7.4 (6.1-11.9) months
same,"PFS, Median months (95% CI)","ER+, n 41, listed as eribulin",7.4 months
same,Clinical benefit rate (CR + PR + ≧6 months SD),"ER+, n = 41",26 (63.4) n (%)
same,Complete response (CR),"ER+, n = 41",0 n (%)
same,Disease control rate (CR + PR + SD),"ER+, n = 41",35 (85.4) n (%)
same,Not evaluable/unknown (response category),"ER+, n = 41",1 (2.4) n (%)
same,Objective response rate (ORR),"ER+, n = 41",14 (34.1) n (%)
same,Partial response (PR),"ER+, n = 41",14 (34.1) n (%)
same,Progressive disease (PD),"ER+, n = 41",5 (12.2) n (%)
same,"DOR, Median months",[1],5.2* months
same,"TTR, Median months",[1],1.1* months
same,"PFS, Median months (95% CI)","ER−/PR−/HER2−, n 12",3.4 (1.2-6.8) months
same,sum of target lesion diameters from baseline to postbaseline nadir,"FIG. 12, in words",majority of patients experienced a decrease
same,Objective response rate (ORR),"Triple negative (ER−/PR−/HER2−), n = 12",2 (16.1) n (%)
same,Clinical benefit rate (CR + PR + ≧6 months SD),"Triple negative, n = 12",3 (25.0) n (%)
same,Complete response (CR),"Triple negative, n = 12",0 n (%)
same,Disease control rate (CR + PR + SD),"Triple negative, n = 12",6 (50.0) n (%)
same,Not evaluable/unknown (response category),"Triple negative, n = 12",1 (8.3) n (%)
same,Partial response (PR),"Triple negative, n = 12",2 (16.7) n (%)
same,Progressive disease (PD),"Triple negative, n = 12",5 (41.7) n (%)
same,ORR,all patients (16/56),28.6%
same,median PFS,patients who did not receive prior A/T,5.7 months
same,median PFS,patients who had received prior A/T,5.9 months
same,clinical benefit rate (CBR),patients with prior A/T (15/33),45.5%
same,ORR,patients with prior neo/adjuvant anthracyclines and/or taxanes (A/T) (9/33),27.3%
